From article PMC10683025, “Discovery of a Hydroxylamine-Based Brain-Penetrant EGFR Inhibitor for Metastatic Non-Small-Cell Lung Cancer” (Journal of Medicinal Chemistry, 2023)
Read-outs that look alike come from different tables or passages of the source.

Assays:
[1] = biological target: T1, LYN (Homo sapiens, UniProt P07948); assay: KINOMEScan; type: binding; settings: read-out: Percent Control
T1 construct: purchased Eurofins DiscoverX (contract assay)
Description: (§1) Percent control was mapped onto the kinome tree using TREEspot.

[2] = biological target: T2, YANK2 (Homo sapiens, UniProt Q9NY57); assay: KINOMEScan; type: binding; settings: YANK2, 1 µM; read-out: Percent Control
T2 construct: purchased Eurofins DiscoverX (KINOMEScan service)
T2 sequence (Q9NY57 whole entry): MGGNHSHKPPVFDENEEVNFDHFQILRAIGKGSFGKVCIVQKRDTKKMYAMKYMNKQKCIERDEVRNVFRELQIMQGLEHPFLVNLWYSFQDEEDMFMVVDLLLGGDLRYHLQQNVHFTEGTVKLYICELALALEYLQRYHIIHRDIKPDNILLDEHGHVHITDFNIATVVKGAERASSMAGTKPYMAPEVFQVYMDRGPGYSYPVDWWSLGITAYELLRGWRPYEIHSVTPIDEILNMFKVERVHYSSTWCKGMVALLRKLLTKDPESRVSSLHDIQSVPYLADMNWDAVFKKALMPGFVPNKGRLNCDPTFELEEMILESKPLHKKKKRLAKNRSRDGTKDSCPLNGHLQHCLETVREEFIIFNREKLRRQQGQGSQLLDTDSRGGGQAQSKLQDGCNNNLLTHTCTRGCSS
Description: as §1

[3] = Metabolic stability in hepatocytes; type: in vitro ADME, beagle dog; settings: for Remaining Percentages: dog hepatocytes
Description: Hepatocyte stability was assessed in duplicate (n = 2) at a working cell density of 0.5 × 10^6 cells/mL with hepatocytes from human (BiolVT), Sprague-Dawley rat (BiolVT), cynomolgus monkey (RILD) or beagle dog (BiolVT). […] The in vitro half-life and intrinsic clearances were determined as previously described.[76]
In vitro half-life (in vitro t1/2) was determined from the slope value in [drawing 1] where k was determined by linear regression of the natural logarithm of the remaining percentage of the parent drug vs the incubation time curve.

[4] = biological target: T3, YSK1 (Homo sapiens, UniProt O00506); assay: KINOMEScan; type: binding; settings: YSK1, 1 µM; read-out: Percent Control
T3 construct: purchased Eurofins DiscoverX (KINOMEScan service)
T3 sequence (O00506 whole entry): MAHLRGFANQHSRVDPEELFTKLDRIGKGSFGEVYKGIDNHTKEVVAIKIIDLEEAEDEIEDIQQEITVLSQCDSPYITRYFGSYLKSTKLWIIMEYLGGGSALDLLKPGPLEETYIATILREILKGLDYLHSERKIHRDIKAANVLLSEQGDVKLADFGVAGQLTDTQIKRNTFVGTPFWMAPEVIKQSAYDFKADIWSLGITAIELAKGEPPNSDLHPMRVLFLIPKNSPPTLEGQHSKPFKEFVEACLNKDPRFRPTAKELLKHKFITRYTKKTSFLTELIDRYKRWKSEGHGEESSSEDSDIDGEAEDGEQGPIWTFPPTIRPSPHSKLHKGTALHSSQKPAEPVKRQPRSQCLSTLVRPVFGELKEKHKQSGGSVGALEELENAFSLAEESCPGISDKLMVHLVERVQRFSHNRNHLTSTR

[5] = Pharmacokinetic study; type: in vivo, BALB/c nude mice
Description: Animal experiments were performed at Pharmaron, Inc. and animal use was approved by Pharmaron’s Institutional Animal Care and Use Committee (IACUC) in Pharmaron (Pharmaron IACUC, Protocol #PK-M-07182022, #PK-R-06012022, and #ON-CELL-XEN-06012022) following the guidance of AAALAC. Six- to eight-week-old male Sprague-Dawley rats (approximately 200–300 g) obtained from Si Bei Fu Laboratory Animal Technology Co., six- to eight-week-old male CD1 mice (approximately 20–30 g) obtained from Si Bei Fu Laboratory Animal Technology Co., and six- to eight-week-old female BALB/c nude mice (approximately 20–30 g) obtained from Si Bei Fu Laboratory Animal Technology Co., were used in the pharmacokinetic studies. Six- to eight-week-old female BALB/c nude mice (approximately 18–22 g) obtained from Beijing Anikeeper Biotech Co., Ltd. were used in the intracranial PDX study. Animals were housed at 20–25 °C with humidity ranging from 40 to 70% relative humidity, were exposed to 12 h light and dark cycles, and were supplied with food and water ab libitum.
Approximately 0.03 mL of blood was collected from the dorsal metatarsal vein (in the case of CD1 mice), 0.03 mL of blood from the orbit vein (in the case of BALB/c nude mice), or 0.2 mL of blood from the jugular vein (in the case of Sprague-Dawley rats) at each time point. Blood at each sampling point was transferred into a plastic micro centrifuge tube containing K2-EDTA, and collection tubes with blood samples and anticoagulant were inverted several times for proper mixing of the tube contents and placed on ice prior to centrifugation for plasma. Blood samples were centrifuged at 4 °C, 4000g for 5 min to obtain plasma. Samples were stored in a freezer at −75 °C prior to analysis. Concentrations of test articles in the plasma samples were determined using LC-MS/MS and WinNonlin 8.3 (Phoenix) was used for pharmacokinetic calculations. The values obtained were plotted on GraphPad Prism software and are presented as mean ± SD.

[6] = biological target: T4, ZAP70 (Homo sapiens, UniProt P43403); assay: KINOMEScan; type: binding; settings: ZAP70, 1 µM; read-out: Percent Control
T4 construct: purchased Eurofins DiscoverX (KINOMEScan service)
T4 sequence (P43403 whole entry): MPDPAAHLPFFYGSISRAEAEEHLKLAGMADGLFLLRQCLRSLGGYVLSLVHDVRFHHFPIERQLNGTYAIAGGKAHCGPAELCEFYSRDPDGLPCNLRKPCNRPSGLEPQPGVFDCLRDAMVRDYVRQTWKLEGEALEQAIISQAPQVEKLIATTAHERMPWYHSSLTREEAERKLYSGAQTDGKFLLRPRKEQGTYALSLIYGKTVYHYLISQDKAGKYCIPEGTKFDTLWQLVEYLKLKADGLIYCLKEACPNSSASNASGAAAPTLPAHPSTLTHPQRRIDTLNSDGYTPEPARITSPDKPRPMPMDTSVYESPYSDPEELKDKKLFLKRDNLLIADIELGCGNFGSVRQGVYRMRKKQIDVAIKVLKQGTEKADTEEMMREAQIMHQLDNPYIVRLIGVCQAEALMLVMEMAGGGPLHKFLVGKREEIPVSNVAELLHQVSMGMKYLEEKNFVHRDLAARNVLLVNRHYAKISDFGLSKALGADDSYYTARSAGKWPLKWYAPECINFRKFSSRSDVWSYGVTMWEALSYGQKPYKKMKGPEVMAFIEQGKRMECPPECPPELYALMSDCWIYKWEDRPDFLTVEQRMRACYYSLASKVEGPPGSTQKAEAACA
Description: as §1

[7] = test system: TA1535; parameters: species or system Salmonella
[8] = biological target: T5, ZAK (Homo sapiens, UniProt Q9NYL2); assay: KINOMEScan; type: binding; settings: read-out: Percent Control
T5 construct: purchased Eurofins DiscoverX (KINOMEScan service)
T5 sequence (Q9NYL2 whole entry): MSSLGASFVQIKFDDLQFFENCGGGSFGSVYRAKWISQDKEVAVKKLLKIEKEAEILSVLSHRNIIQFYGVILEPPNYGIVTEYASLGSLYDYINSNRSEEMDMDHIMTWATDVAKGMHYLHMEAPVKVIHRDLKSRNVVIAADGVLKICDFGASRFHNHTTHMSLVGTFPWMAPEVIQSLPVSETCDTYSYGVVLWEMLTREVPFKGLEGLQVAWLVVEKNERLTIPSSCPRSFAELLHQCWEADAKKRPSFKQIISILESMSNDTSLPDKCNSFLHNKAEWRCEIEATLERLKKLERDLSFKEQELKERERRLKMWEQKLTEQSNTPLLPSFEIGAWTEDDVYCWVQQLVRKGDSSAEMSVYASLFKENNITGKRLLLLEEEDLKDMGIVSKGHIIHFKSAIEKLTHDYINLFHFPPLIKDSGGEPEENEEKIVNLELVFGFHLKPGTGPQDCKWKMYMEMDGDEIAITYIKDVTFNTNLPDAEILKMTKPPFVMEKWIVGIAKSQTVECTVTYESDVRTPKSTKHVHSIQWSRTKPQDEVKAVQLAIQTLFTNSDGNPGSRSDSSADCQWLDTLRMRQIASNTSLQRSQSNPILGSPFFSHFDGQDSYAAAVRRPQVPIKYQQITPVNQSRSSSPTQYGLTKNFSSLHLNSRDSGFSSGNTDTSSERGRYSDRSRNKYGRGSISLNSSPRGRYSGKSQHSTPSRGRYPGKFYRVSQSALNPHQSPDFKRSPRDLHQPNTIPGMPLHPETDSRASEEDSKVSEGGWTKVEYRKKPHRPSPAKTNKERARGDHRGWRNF

[9] = biological target: T6, ACVRL1 (Homo sapiens, UniProt P37023); assay: KINOMEScan; type: binding; settings: ACVRL1, 1 µM; read-out: Percent Control
T6 construct: purchased Eurofins DiscoverX (KINOMEscan)
Description: as §1

[10] = biological target: T7, ALK(C1156Y) (Homo sapiens, UniProt Q9UM73, C1156Y); assay: KINOMEScan; type: binding; settings: read-out: Percent Control
T7 construct: purchased Eurofins DiscoverX (KINOMEscan)
T7 sequence (Q9UM73 19-1620 C1156Y): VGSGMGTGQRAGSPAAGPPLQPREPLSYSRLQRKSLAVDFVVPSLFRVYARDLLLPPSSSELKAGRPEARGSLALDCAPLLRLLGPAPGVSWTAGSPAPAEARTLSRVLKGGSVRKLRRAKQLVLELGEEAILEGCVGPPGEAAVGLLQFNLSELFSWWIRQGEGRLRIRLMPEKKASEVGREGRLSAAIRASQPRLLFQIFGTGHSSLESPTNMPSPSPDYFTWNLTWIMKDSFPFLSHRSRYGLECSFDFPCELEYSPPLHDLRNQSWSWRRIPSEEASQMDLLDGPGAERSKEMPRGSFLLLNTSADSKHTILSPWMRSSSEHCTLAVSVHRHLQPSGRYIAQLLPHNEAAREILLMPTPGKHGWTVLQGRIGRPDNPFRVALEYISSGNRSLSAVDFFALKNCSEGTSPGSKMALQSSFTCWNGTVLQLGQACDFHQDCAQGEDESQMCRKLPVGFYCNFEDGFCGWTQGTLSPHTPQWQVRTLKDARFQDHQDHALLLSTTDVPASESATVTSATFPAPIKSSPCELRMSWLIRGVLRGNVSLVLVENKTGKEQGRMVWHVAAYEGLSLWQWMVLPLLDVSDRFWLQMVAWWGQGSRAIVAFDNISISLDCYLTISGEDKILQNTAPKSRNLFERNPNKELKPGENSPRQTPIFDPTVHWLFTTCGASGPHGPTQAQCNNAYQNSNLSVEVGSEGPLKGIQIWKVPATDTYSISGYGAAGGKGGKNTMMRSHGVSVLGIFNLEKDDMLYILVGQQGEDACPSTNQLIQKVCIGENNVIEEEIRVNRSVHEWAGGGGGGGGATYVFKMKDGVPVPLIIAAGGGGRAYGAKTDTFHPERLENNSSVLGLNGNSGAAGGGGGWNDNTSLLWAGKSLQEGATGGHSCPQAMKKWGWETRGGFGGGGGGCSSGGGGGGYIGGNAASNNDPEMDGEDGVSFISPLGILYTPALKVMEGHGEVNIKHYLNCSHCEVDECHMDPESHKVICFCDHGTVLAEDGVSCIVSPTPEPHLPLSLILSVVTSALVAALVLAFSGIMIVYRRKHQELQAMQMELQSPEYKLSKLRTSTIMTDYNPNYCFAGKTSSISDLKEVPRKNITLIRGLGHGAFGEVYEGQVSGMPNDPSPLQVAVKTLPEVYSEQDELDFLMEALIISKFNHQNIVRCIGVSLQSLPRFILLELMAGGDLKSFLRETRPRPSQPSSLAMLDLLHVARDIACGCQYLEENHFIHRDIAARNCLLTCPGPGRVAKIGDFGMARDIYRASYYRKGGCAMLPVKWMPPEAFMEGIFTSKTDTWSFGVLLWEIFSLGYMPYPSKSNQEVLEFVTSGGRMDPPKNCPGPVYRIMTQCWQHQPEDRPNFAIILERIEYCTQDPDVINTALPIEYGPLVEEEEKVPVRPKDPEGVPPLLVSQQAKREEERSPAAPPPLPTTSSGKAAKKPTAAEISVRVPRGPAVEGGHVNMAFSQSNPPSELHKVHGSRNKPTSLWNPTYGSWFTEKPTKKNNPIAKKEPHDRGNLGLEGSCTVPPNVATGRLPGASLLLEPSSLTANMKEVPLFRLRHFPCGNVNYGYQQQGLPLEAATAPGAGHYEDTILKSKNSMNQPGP
Description: as §1

[11] = biological target: T8, YES (Homo sapiens, UniProt P07947); assay: KINOMEScan; type: binding; settings: read-out: Percent Control
T8 construct: purchased Eurofins DiscoverX (KINOMEScan service)
T8 sequence (P07947 whole entry): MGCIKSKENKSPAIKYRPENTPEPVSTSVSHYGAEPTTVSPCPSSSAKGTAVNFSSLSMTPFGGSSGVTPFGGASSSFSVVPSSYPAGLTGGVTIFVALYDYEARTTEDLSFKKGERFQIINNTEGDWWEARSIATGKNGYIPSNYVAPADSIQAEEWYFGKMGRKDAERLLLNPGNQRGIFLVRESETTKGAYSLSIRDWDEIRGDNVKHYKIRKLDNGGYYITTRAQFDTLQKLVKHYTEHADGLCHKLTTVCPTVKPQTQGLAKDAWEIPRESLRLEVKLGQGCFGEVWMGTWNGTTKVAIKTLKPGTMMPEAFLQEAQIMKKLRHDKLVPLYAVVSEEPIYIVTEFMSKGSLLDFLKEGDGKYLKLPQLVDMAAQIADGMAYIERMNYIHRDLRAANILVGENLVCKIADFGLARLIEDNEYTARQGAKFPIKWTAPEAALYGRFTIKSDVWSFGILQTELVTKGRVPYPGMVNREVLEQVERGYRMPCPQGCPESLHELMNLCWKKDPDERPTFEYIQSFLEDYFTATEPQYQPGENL

[12] = biological target: T9, WEE1 (Homo sapiens, UniProt P30291); assay: KINOMEScan; type: binding; settings: WEE1, 1 µM; read-out: Percent Control
T9 construct: purchased Eurofins DiscoverX
Description: as §1

[13] = biological target: T10, ABL1(F317L)-nonphosphorylated (Homo sapiens, UniProt P00519, F317L); assay: KINOMEScan; type: binding; settings: read-out: Percent Control
T10 construct: purchased Eurofins DiscoverX
Description: as §1

[14] = biological target: T11, CYP2C19 (Homo sapiens, UniProt P33261); assay: CYP450 inhibition in human liver microsomes; type: in vitro ADME
T11 construct: tissue BD Gentest; host or cells: pooled human liver microsomes
T11 sequence (P33261 whole entry): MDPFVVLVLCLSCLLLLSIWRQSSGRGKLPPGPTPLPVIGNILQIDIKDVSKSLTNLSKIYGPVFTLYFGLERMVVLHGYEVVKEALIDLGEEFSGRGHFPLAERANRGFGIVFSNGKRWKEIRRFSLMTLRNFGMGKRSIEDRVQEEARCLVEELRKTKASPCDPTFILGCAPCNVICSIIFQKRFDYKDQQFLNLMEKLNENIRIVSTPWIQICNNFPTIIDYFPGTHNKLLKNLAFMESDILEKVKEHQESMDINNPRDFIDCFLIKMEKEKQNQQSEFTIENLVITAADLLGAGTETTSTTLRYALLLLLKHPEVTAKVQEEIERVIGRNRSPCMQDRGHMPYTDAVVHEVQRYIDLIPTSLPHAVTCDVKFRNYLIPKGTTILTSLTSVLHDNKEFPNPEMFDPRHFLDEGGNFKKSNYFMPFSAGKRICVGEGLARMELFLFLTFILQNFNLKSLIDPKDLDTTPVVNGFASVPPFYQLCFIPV
Description: The activities tested were CYP1A2-mediated phenacetin O-demethylation, CYP2C19-mediated (S)-mephenyotin 4′-hydroxylation, CYP2C9-mediated diclofenac 4′-hydroxylation, CYP2D6-mediated dextromethorphan O-demethylation, and CYP3A4-mediated midazolam 1′-hydroxylation. […] The reactions were initiated by adding NADPH (1 mM final concentration) after a 5 min preincubation, and the assay was run in duplicate (n = 2). Samples were analyzed by ultra-performance liquid chromatography tandem mass spectrometry (UPLC-MS/MS).

[15] = female, BALB/c nude, plasma, Mouse 3 mg/kg (IV)
[16] = female, BALB/c nude, plasma, Mouse 30 mg/kg (PO)

**Q.** Which results are given for `COc1cc2ncnc(Nc3cccc(Cl)c3F)c2cc1OCCON1CCN(C)CC1` [Compound 9, N-(3-Chloro-2-fluorophenyl)-7-methoxy-6-(2-((4-methylpiperazin-1-yl)oxy)ethoxy)quinazolin-4-amine]?
**A.** remaining binding at 1 µM [1]: 7.4%; remaining binding at 1 µM [2]: 93%; hepatocyte CLint at 2 h, 1 µM ([3]; beagle, dog, hepatocytes): 13 µL/min/1e6 cells; Remaining Percentages ([3]; 15 min): 88.01%; Remaining Percentages ([3]; 30 min): 79.61%; Remaining Percentages ([3]; 60 min): 68.74%; Remaining Percentages ([3]; 90 min): 60.01%; Remaining Percentages ([3]; 120 min): 41.31%; remaining binding at 1 µM [4]: 94%; plasma level at the 24 h time point ([5]; 30 mg/kg PO, BALB/c nude mice): no compound was detected; clearance [5, 15]: 58.6 ± 8.7 mL/min/kg; half-life at 24 h [5, 15]: 1.67 ± 0.12 h; Vd at 24 h ([5]; female, BALB/c nude, plasma, Mouse 3 mg/kg (IV), read-out: Vss): 4.68 ± 0.54 L/kg; Cmax at 24 h [5, 16]: 2180 ± 66 nM; Tmax at 24 h [5, 16]: 0.42 ± 0.14 h; bioavailability at 24 h [5, 16]: 61%; half-life at 24 h [5, 16]: 1.84 ± 0.62 h; remaining binding at 1 µM [6]: 98%; Count (# of wells) ([7]; TA1535+S9, 1.0E-04 M): 0; Positive Significance (- to +++) ([7]; TA1535+S9, 1.0E-04 M): -; Count (# of wells) ([7]; TA1535+S9, 1.0E-05 M): 3; Positive Significance (- to +++) ([7]; TA1535+S9, 1.0E-05 M): -; Count (# of wells) ([7]; TA1535+S9, 5.0E-05 M): 0; Positive Significance (- to +++) ([7]; TA1535+S9, 5.0E-05 M): -; Count (# of wells) ([7]; TA1535+S9, 5.0E-06 M): 1; Positive Significance (- to +++) ([7]; TA1535+S9, 5.0E-06 M): -; Count (# of wells) ([7]; TA1535-S9, 1.0E-04 M): 0; Positive Significance (- to +++) ([7]; TA1535-S9, 1.0E-04 M): -; Count (# of wells) ([7]; TA1535-S9, 1.0E-05 M): 0; Positive Significance (- to +++) ([7]; TA1535-S9, 1.0E-05 M): -; Count (# of wells) ([7]; TA1535-S9, 5.0E-05 M): 0; Positive Significance (- to +++) ([7]; TA1535-S9, 5.0E-05 M): -; Count (# of wells) ([7]; TA1535-S9, 5.0E-06 M): 0; Positive Significance (- to +++) ([7]; TA1535-S9, 5.0E-06 M): -; remaining binding at 1 µM [8]: 89%; remaining binding at 1 µM [9]: 100%; remaining binding at 1 µM [10]: 100%; remaining binding at 1 µM [11]: 59%; remaining binding at 1 µM [12]: 100%; remaining binding at 1 µM [13]: 16%; IC50 [14]: > 30 µM
